Measured values as given in ChEMBL document CHEMBL1201862, “PubChem BioAssay data set” (2004).
Several values for one entry are separate records, joined by “and”; a condition that tells them apart may be missing. Equal entries are not always repeated.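 Briefly, cells in 96-well plates were exposed to five compound concentrations for 48 h, and endpoints were estimated by linear interpolation. GI50 marks 50% less growth.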 Activity calls are given as the source filed them. Cut-off read from the data, not from the text of the source: active = GI50 up to about 1.1 µM and inactive = higher.

How the values were obtained:
Experiment in all cases: NCI tumour cell line growth inhibition, 48 h
[1] = test system: 786-0
[2] = test system: A498
[3] = test system: ACHN
[4] = test system: CAKI-1
[5] = test system: CCRF-CEM
[6] = test system: HOP-92
[7] = test system: LOX IMVI
[8] = test system: MCF7
[9] = test system: MOLT-4
[10] = test system: SF-295
[11] = test system: SF-539
[12] = test system: SNB-19
[13] = test system: SR
[14] = test system: SW-620
[15] = test system: DU-145
[16] = test system: HT-29
[17] = test system: MDA-MB-231
[18] = test system: OVCAR-4
[19] = test system: UACC-62

NC1=NC(=O)C2(NN1)c1ccccc1-c1ccccc12
GI50 [1]: > 10 µM (inactive) | GI50 [2]: 3.94 µM (inactive) | GI50 [3]: 6.17 µM (inactive) | GI50 [4]: > 10 µM (inactive) | GI50 [5]: > 10 µM (inactive) | GI50 [6]: > 10 µM (inactive) | GI50 [7]: > 10 µM (inactive) | GI50 [8]: 3.26 µM (inactive) | GI50 [9]: > 10 µM (inactive) | GI50 [10]: > 10 µM (inactive) | GI50 [11]: > 10 µM (inactive) | GI50 [12]: > 10 µM (inactive) | GI50 [13]: > 10 µM (inactive) | GI50 [14]: > 10 µM (inactive)

NC(=O)/N=C1\NCCC(=O)N1CCc1c[nH]c2ccccc12
GI50 [1]: 24 µM (inactive) | GI50 [2]: 17.3 µM (inactive) | GI50 [3]: 21.5 µM (inactive) | GI50 [4]: 0.426 µM (active) | GI50 [5]: 14.4 µM (inactive) | GI50 [15]: 21 µM (inactive) | GI50 [16]: 17.1 µM (inactive) | GI50 [7]: 11 µM (inactive) | GI50 [17]: 8.09 µM (inactive) | GI50 [9]: 14.5 µM (inactive) | GI50 [18]: 19 µM (inactive) | GI50 [10]: 41.2 µM (inactive) | GI50 [11]: 15.6 µM (inactive) | GI50 [12]: 21.4 µM (inactive) | GI50 [13]: 25.8 µM (inactive) | GI50 [14]: 26.7 µM (inactive) | GI50 [19]: 18.2 µM (inactive)

N#CC(N)(C(=O)C(=O)NCCCNC(=O)C(=O)C(N)(C#N)c1ccc(Cl)cc1)c1ccc(Cl)cc1 (stereo unspecified)
GI50 [1]: > 100 µM (inactive) | GI50 [2]: > 100 µM (inactive) | GI50 [3]: > 100 µM (inactive) | GI50 [4]: > 100 µM (inactive) | GI50 [5]: > 100 µM (inactive) | GI50 [6]: > 100 µM (inactive) | GI50 [16]: > 100 µM (inactive) | GI50 [7]: > 100 µM (inactive) | GI50 [9]: > 100 µM (inactive) | GI50 [18]: > 100 µM (inactive) | GI50 [10]: > 100 µM (inactive) | GI50 [11]: > 100 µM (inactive) | GI50 [12]: > 100 µM (inactive) | GI50 [13]: > 100 µM (inactive) | GI50 [14]: > 100 µM (inactive) | GI50 [19]: > 100 µM (inactive)

CCOP(=O)(OCC)C(C)(CC)NC(=O)C(C(F)(F)F)C(F)(F)F (stereo unspecified)
GI50 [1]: 40.4 µM (inactive) and 61.5 µM (inactive) | GI50 [2]: > 100 µM (inactive) | GI50 [3]: > 100 µM (inactive) | GI50 [4]: > 100 µM (inactive) | GI50 [5]: 22 µM (inactive) and 21.9 µM (inactive) | GI50 [15]: > 100 µM (inactive) | GI50 [6]: > 57 µM (inactive) | GI50 [16]: > 100 µM (inactive) | GI50 [7]: > 88.3 µM (inactive) and 72.3 µM (inactive) | GI50 [8]: > 31.6 µM (inactive) and 29.7 µM (inactive) | GI50 [9]: > 49.3 µM (inactive) and 63.4 µM (inactive) | GI50 [18]: > 100 µM (inactive) | GI50 [10]: > 100 µM (inactive) | GI50 [12]: > 100 µM (inactive) | GI50 [13]: 63.4 µM (inactive) and 33.8 µM (inactive) | GI50 [14]: > 100 µM (inactive) and 92 µM (inactive)

CCOC(=O)CN(Cc1ccccc1)Cc1c(C(=O)c2ccccc2)c2ccccc2n1C(=O)c1ccccc1
GI50 [1]: > 100 µM (inactive) | GI50 [2]: > 100 µM (inactive) | GI50 [3]: > 100 µM (inactive) | GI50 [4]: > 100 µM (inactive) | GI50 [5]: > 100 µM (inactive) | GI50 [6]: 10.4 µM (inactive) | GI50 [16]: > 100 µM (inactive) | GI50 [7]: > 100 µM (inactive) | GI50 [9]: 5.4 µM (inactive) | GI50 [18]: > 100 µM (inactive) | GI50 [10]: > 100 µM (inactive) | GI50 [11]: > 100 µM (inactive) | GI50 [12]: > 100 µM (inactive) | GI50 [13]: 41 µM (inactive) | GI50 [14]: > 100 µM (inactive) | GI50 [19]: > 100 µM (inactive)

COc1ccc(N[S+]([O-])c2ccccc2OC)cc1 (stereo unspecified)
GI50 [1]: 43.3 µM (inactive) | GI50 [3]: 20.4 µM (inactive) | GI50 [4]: 25.8 µM (inactive) | GI50 [5]: 26.1 µM (inactive) | GI50 [15]: 27.5 µM (inactive) | GI50 [16]: 18.1 µM (inactive) | GI50 [7]: 10.3 µM (inactive) | GI50 [8]: 20.2 µM (inactive) | GI50 [17]: 15 µM (inactive) | GI50 [9]: 27 µM (inactive) | GI50 [18]: 53.7 µM (inactive) | GI50 [10]: 31.7 µM (inactive) | GI50 [11]: 18.2 µM (inactive) | GI50 [12]: 36.2 µM (inactive) | GI50 [13]: 11.9 µM (inactive) | GI50 [14]: 22.7 µM (inactive) | GI50 [19]: 2.07 µM (inactive)
